Experimental data from patent US20250213700A1, “COMPOUNDS, COMPOSITIONS, AND METHODS FOR CELL-SPECIFIC PHARMACOLOGY” (Duke University, priority 2022, published 2025).

Assays:
[1] = test system: NMDA or AMPA-mediated transmission; test: VTA slice, NMDA or AMPA-mediated transmission; assay type: cell-based, mouse
Method: Electrophysiology. Preparation of Brain slices: Mice (8-10 weeks) were injected AAV10 HaloTag™-dTomato to striatum or ventral tegmental area (VTA). After 3-5 weeks, mice were deeply anesthetized with isoflurane and euthanized by decapitation. Coronal brain slices ([…]) containing striatum or VTA were prepared by standard methods using a Vibratome (Leica, VT 1200S), in ice-cold high sucrose cutting solution containing (in mM) 220 sucrose, 3 KCl, 1.25 NaH2PO4, 25 NaHCO3, 12 MgSO4.7H2O, 10 glucose, and 0.2 CaCl2) bubbled with 95% O2 and 5% CO2. […]
Whole-cell patch-clamp recording: The brain slices or retinas were perfused with bubbled aCSF at 29-30° C. with a 2 ml/min flow rate. […] Series resistance was monitored using 5-10 mV hyperpolarizing step throughout the experiment, and cells were discarded if series resistance changed more than ˜15% during the experiment. […] Statistical significance was determined using Student's t or one-way or two-way ANOVA tests. eIPSCs or eEPSCs decay time constants were obtained by fitting a single-exponential function, I(t)=I exp(−t/T)+ISS, where I(t) is the amplitude of the current at time t and ISS is the steady-state current, I is instantaneous current subtracted from Iss, and t is the time constant of decay. […]

[2] = test system: DAT-Cre mice with +HTP or ddHTP in VTA dopamine neurons; test: locomotor speed after infusion into the VTA of DAT-Cre mice; assay type: in vivo, mouse; conditions: for running / locomotor speed, +HTP mice: 10:1 mixture with Alexa647.1DART.2, 1.2 μL of 10 μM into the VTA; for running / locomotor speed, ddHTP mice: same dose
Description: (FIG. 4A) Validation of gabazine.1^DART.2 in cerebellar slice. Top: voltage-clamp schematic. Bottom: tonic GABAAR in granule cells expressing ^+HTP or ^ddHTP. […] Data are mean±SEM, cells normalized to baseline. (FIG. 4B) In vivo delivery of gabazine.1^DART.2 to cerebellar granule cells. Top right: schematic of experimental approach, GCaMP6f granule-cell activity obtained in the absence of sensory stimuli. Top left: example field of view, GCaMP6f signal averaged across trials. Bottom: example calcium traces (ΔF/F) in an awake ^+HTP mouse before (baseline) and after (1 μL of 1 μM gabazine.1^DART.2) infusion. (FIG. 4C) In vivo, 1 μL of 1 μM gabazine.1^DART.2 to ^+HTP mice. Color indicates ΔF/F, each row is one cell before (left) and after (right) gabazine.1^DART.2 infusion. […] (FIG. 4D) In vivo, 1 μL of 1 μM gabazine.1^DART.2 to ^ddHTP mice. Format as in panel C. […] (FIG. 4E) Validation of gabazine.7^DART.2 in VTA slice. Top: evoked-IPSC configuration. […] Data are mean±SEM, cells normalized to baseline. […] Data are mean±SEM, normalized to baseline speed of each animal.
Behavioral assays: Assays were performed at least 3 weeks after viral injection to allow for recombinant protein expression. Mice were acclimated to head-fixation for 3 consecutive days prior to behavioral experiments. Reagents were infused into the brain via the cranial cannula. Immediately following infusion, mice were placed into open-field chambers (27 cm×27 cm) in the dark, and behavior was recorded using infrared video.
A practical issue for intrinsically active neurons is that one can no longer leverage the concept of a floor-effect (i.e., silencing an already quiet neuron), making it difficult to apply optogenetic principles of necessity and sufficiency. Thus, it was sought to examine the technical feasibility of using DART to block neurotransmitter signaling onto these cells; in essence, preventing extrinsic neurotransmitter modulation of dopamine neurons, without disrupting their intrinsic rhythm. Moreover, it was sought to use behavior as the readout, which would likely require manipulation of more cells over a larger brain volume than in the prior experiment. Given this goal, a wide dosing window is key, and thus effort was focused on gabazine.7DART.2, with expression of AAV DIO +HTPGPI or AAV DIO ddHTPGPI in DAT-Cre mice. […] Next, locomotor effects of the manipulations were assessed using the same viral parameters along with bilateral indwelling cannula.

| SMILES | antagonism of the AMPAR in slice [1] | impact on locomotion ([2]; VTA dopamine neurons) | impact on NMDA or AMPA-mediated transmission ([1]; +HTP cells) | running / locomotor speed, +HTP mice [2] | running / locomotor speed, +HTP mice ([2]; listed as gabazine.7^DART.2) | running / locomotor speed, ddHTP mice [2] | running / locomotor speed, ddHTP mice ([2]; listed as gabazine.7^DART.2) |
| --- | --- | --- | --- | --- | --- | --- | --- |
| COc1cc(CCCCl)ccc1CCOCCNC(=O)c1ccc(CNC(=O)CCOCCOCCOCCOCCOCCOCCOCCOCCOCCOCCOCCOCCOCCOCCOCCOCCOCCOCCOCCOCCOCCOCCOCCOCCOCCOCCOCCOCCOCCOCCOCCOCCOCCOCCOCCOCCn2cc(COCCOCCOCCOCCOCCOCCNC(=O)CCCn3c(=O)c(=O)[nH]c4cc([N+](=O)[O-])c(-n5ccnc5)cc43)nn2)cc1 [YM90K.1DART.2] | potent antagonism of the AMPAR | no impact on locomotion | – | – | – | – | – |
| COc1cc(CCCCl)ccc1CCOCCNC(=O)c1ccc(CNC(=O)CCOCCOCCOCCOCCOCCOCCOCCOCCOCCOCCOCCOCCOCCOCCOCCOCCOCCOCCOCCOCCOCCOCCOCCOCCOCCOCCOCCOCCOCCOCCOCCOCCOCCOCCOCCOCCn2cc(COCCOCCOCCOCCOCCOCCOCCCCCCOc3ccc(-c4nn(CCCCC(=O)O)c(=N)cc4C)cc3)nn2)cc1 [gabazine.7DART.2] | – | – | no impact on NMDA or AMPA-mediated transmission | significant increase in running speed | increased locomotor speed | no impact in ^ddHTP animals | not in ^ddHTP control mice |
